Reference: ChEMBL document CHEMBL5260842 (J Med Chem, 2019)
pEC50, pIC50: −log10 of the molar value. The source made the active and inactive calls. The rule behind the calls is not given here.

What was measured:
[1] = target: T1, von Hippel-Lindau disease tumor suppressor/Androgen receptor (Homo sapiens, UniProt P10275+P40337); test: Protac activity at VHL/AR in human VCaP cells assessed as induction of protein degradation at 10 nM measured after 24 hrs by Western blot analysis relative to control; format: cell-based
Target sequence in this assay (P10275 whole entry, looked up): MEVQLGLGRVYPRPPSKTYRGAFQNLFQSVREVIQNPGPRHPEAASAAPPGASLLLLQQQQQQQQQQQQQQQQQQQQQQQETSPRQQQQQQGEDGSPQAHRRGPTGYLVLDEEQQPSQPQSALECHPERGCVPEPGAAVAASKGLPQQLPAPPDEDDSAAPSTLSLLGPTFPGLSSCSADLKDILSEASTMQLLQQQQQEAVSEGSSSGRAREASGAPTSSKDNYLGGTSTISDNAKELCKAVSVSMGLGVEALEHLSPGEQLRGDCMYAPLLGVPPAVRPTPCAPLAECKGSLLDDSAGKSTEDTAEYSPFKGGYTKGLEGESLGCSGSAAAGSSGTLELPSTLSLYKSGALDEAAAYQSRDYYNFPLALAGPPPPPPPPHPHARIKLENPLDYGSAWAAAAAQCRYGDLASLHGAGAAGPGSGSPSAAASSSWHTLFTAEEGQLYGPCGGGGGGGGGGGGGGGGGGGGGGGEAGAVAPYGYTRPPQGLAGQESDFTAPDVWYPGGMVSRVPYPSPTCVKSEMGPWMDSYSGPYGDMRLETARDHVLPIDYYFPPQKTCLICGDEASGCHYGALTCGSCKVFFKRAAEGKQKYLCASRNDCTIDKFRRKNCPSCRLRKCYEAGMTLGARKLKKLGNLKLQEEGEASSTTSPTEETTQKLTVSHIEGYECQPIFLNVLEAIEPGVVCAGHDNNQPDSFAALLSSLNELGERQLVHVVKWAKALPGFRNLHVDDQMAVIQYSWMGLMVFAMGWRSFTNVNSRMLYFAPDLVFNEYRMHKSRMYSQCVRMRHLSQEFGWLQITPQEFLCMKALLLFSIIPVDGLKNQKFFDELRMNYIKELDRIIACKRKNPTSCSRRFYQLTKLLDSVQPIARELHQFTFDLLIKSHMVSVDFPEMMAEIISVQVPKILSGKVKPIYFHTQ
Target sequence in this assay (P40337 whole entry, looked up): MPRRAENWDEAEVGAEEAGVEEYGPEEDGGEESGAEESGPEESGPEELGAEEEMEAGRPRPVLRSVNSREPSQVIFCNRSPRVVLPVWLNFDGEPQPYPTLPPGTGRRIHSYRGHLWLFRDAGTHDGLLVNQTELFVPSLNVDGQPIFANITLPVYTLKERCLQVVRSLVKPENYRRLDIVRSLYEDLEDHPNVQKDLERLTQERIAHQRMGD

[2] = Downregulation of TMPRSS2 mRNA expression in human LNCaP cells at 10 nM measured after 24 hrs by qRT-PCR analysis relative to control; format: functional
[3] = Downregulation of PSA mRNA expression in human VCaP cells at 10 nM measured after 24 hrs by regular serum based qRT-PCR analysis relative to control; format: functional
[4] = Downregulation of TMPRSS2 mRNA expression in human VCaP cells at 10 nM measured after 24 hrs by charcoal stripped serum based qRT-PCR analysis relative to control; format: functional
VCaP [5] = test: Downregulation of TMPRSS2 mRNA expression in human VCaP cells measured after 24 hrs by charcoal stripped serum based qRT-PCR analysis; format: functional, cell-based; details: dose 1-1000 nM
[6] = Downregulation of TMPRSS2 mRNA expression in human VCaP cells at 10 nM measured after 24 hrs by regular serum based qRT-PCR analysis relative to control; format: functional
[7] = target: T1, von Hippel-Lindau disease tumor suppressor/Androgen receptor; test: (§1) Protac activity at VHL/AR in AR-positive human VCaP cells assessed as induction of androgen receptor degradation at 100 nM preincubated with VHL ligand, (2S,4R)-4-hydroxy-1-((R)-3-methyl-2-(3-methylisoxazol-5-yl)butanoyl)-N-((S)-3-(methylamino)-1-(4-(4-methylthiazol-5-yl)phenyl)-3-oxopropyl)pyrrolidine-2-carboxamide for 2 hrs followed by compound addition and measured after 6 hrs by Western blot analysis; format: cell-based
Target sequence in this assay (P10275 whole entry, looked up): as the sequence (P10275 whole entry, looked up) above
Target sequence in this assay (P40337 whole entry, looked up): as the sequence (P40337 whole entry, looked up) above

[8] = target: T1, von Hippel-Lindau disease tumor suppressor/Androgen receptor; test: (§2) Protac activity at VHL/AR in AR-positive human LNCaP cells assessed as induction of androgen receptor degradation at 100 nM preincubated with N-((1r,3r)-3-(3-chloro-4-cyanophenoxy)-2,2,4,4-tetramethylcyclobutyl)-1-(2-hydroxyethyl)-1H-pyrazole-4-carboxamide for 2 hrs followed by compound addition and measured after 6 hrs by Western blot analysis; format: cell-based
Target sequence in this assay (P10275 whole entry, looked up): as the sequence (P10275 whole entry, looked up) above
Target sequence in this assay (P40337 whole entry, looked up): as the sequence (P40337 whole entry, looked up) above

[9] = system: von Hippel-Lindau disease tumor suppressor/Androgen receptor (Homo sapiens); test: In vivo protac activity at VHL/AR in human VCaP cells xenografted SCID mouse assessed as reduction in AR protein level in tumor at 50 mg/kg, ip administered as single dose measured after 3 to 48 hrs Western blot analysis; details: time 3-48 hrs
[10] = target: T1, von Hippel-Lindau disease tumor suppressor/Androgen receptor; test: Protac activity at VHL/AR in AR-positive human LNCaP cells assessed as reduction in protein level at 100 nM measured after 2 to 4 hrs by Western blot analysis; format: cell-based; details: time 2-4 hrs
Target sequence in this assay (P10275 whole entry, looked up): as the sequence (P10275 whole entry, looked up) above
Target sequence in this assay (P40337 whole entry, looked up): as the sequence (P40337 whole entry, looked up) above

[11] = target: T1, von Hippel-Lindau disease tumor suppressor/Androgen receptor; test: Protac activity at VHL/AR in human LNCaP cells assessed as induction of protein degradation measured after 24 hrs by Western blot analysis; format: cell-based
Target sequence in this assay (P10275 whole entry): as the sequence (P10275 whole entry, looked up) above
Target sequence in this assay (P40337 whole entry): as the sequence (P40337 whole entry, looked up) above

[12] = target: T1, von Hippel-Lindau disease tumor suppressor/Androgen receptor; test: Protac activity at VHL/AR in AR-positive human LNCaP cells assessed as induction of androgen receptor degradation at 0.01 uM incubated for 6 hrs by Western blot analysis (reference value: 0%); format: cell-based
Target sequence in this assay (P10275 whole entry, looked up): as the sequence (P10275 whole entry, looked up) above
Target sequence in this assay (P40337 whole entry, looked up): as the sequence (P40337 whole entry, looked up) above

VCaP [13] = test: Downregulation of FKBP5 mRNA expression in human VCaP cells measured after 24 hrs by regular serum based qRT-PCR analysis; format: functional, cell-based; details: dose 1-1000 nM
VCaP [14] = test: Downregulation of FKBP5 mRNA expression in human VCaP cells measured after 24 hrs by charcoal stripped serum based qRT-PCR analysis; format: functional, cell-based; details: dose 1-1000 nM
VCaP [15] = test: Downregulation of ERG gene expression in human VCaP cells measured after 24 hrs by charcoal stripped serum based qRT-PCR analysis; format: functional, cell-based; details: dose 1-1000 nM
[16] = target: T1, von Hippel-Lindau disease tumor suppressor/Androgen receptor; test: Protac activity at VHL/AR in AR-positive human LNCaP cells assessed as induction of androgen receptor degradation at 0.1 uM incubated for 6 hrs by Western blot analysis (reference value: 0%); format: cell-based
Target sequence in this assay (P10275 whole entry, looked up): as the sequence (P10275 whole entry, looked up) above
Target sequence in this assay (P40337 whole entry, looked up): as the sequence (P40337 whole entry, looked up) above

VCaP [17] = test: Downregulation of PSA mRNA expression in human VCaP cells measured after 24 hrs by regular serum based qRT-PCR analysis; format: functional, cell-based; details: dose 1-1000 nM
[18] = target: T1, von Hippel-Lindau disease tumor suppressor/Androgen receptor; test: Protac activity at VHL/AR in human 22Rv1 cells assessed as induction of protein degradation measured after 24 hrs by Western blot analysis; format: cell-based
Target sequence in this assay (P10275 whole entry): as the sequence (P10275 whole entry, looked up) above
Target sequence in this assay (P40337 whole entry): as the sequence (P40337 whole entry, looked up) above

VCaP [19] = test: Downregulation of TMPRSS2 mRNA expression in human VCaP cells measured after 24 hrs by regular serum based qRT-PCR analysis; format: functional, cell-based; details: dose 1-1000 nM
[20] = target: T1, von Hippel-Lindau disease tumor suppressor/Androgen receptor; test: Protac activity at VHL/AR in AR-positive human VCaP cells assessed as reduction in protein level at 100 nM measured after 2 to 4 hrs by Western blot analysis; format: cell-based; details: time 2-4 hrs
[21] = target: T1, von Hippel-Lindau disease tumor suppressor/Androgen receptor; test: In vivo protac activity at VHL/AR in human VCaP cells xenografted SCID mouse assessed as reduction in PSA protein level in tumor at 50 mg/kg, ip administered as single dose measured after 3 to 48 hrs Western blot analysis; format: functional, organism-based; details: time 3-48 hrs
[22] = target: T1, von Hippel-Lindau disease tumor suppressor/Androgen receptor; test: as §2, with “VCaP” for “LNCaP”; format: cell-based
LNCaP [23] = test: Potency index, ratio of enzalutamide IC50 to test compound IC50 for cytotoxicity against AR-positive human LNCaP cells assessed as inhibition of cell growth incubated for 7 days in presence of AR agonist, R1881 in charcoal stripped medium by WST-8 assay; format: functional; details: time 7 day
CWR22R [24] = test: Potency index, ratio of enzalutamide IC50 to test compound IC50 for cytotoxicity against AR-positive human 22Rv1 cells assessed as inhibition of cell growth incubated for 7 days in regular culture medium by WST-8 assay; format: functional; details: time 7 day
VCaP [25] = test: Cytotoxicity against AR-positive human VCaP cells assessed as inhibition of cell growth incubated for 7 days in presence of AR agonist, R1881 in charcoal stripped medium by WST-8 assay; format: functional, cell-based; details: 168 h
VCaP [26] = test: Downregulation of PSA mRNA expression in human VCaP cells measured after 24 hrs by charcoal stripped serum based qRT-PCR analysis; format: functional, cell-based; details: dose 1-1000 nM
LNCaP [27] = test: Downregulation of PSA mRNA expression in human LNCaP cells measured after 24 hrs by qRT-PCR analysis; format: functional, cell-based; details: dose 0.1-10000 nM
CWR22R [28] = test: Cytotoxicity against AR-positive human 22Rv1 cells assessed as inhibition of cell growth incubated for 7 days in regular culture medium by WST-8 assay; format: functional, cell-based; details: 22Rv1, 168 h
LNCaP [29] = test: Downregulation of TMPRSS2 mRNA expression in human LNCaP cells measured after 24 hrs by qRT-PCR analysis; format: functional, cell-based; details: dose 0.1-10000 nM
LNCaP [30] = test: Downregulation of FKBP5 mRNA expression in human LNCaP cells measured after 24 hrs by qRT-PCR analysis; format: functional, cell-based; details: dose 0.1-10000 nM
VCaP [31] = test: Potency index, ratio of enzalutamide IC50 to test compound IC50 for cytotoxicity against AR-positive human VCaP cells assessed as inhibition of cell growth incubated for 7 days in presence of AR agonist, R1881 in charcoal stripped medium by WST-8 assay; format: functional; details: time 7 day
[32] = target: T1, von Hippel-Lindau disease tumor suppressor/Androgen receptor; test: Protac activity at VHL/AR in human VCaP cells assessed as induction of protein degradation measured after 24 hrs by Western blot analysis; format: cell-based
Target sequence in this assay (P10275 whole entry): as the sequence (P10275 whole entry, looked up) above
Target sequence in this assay (P40337 whole entry): as the sequence (P40337 whole entry, looked up) above

LNCaP [33] = test: Cytotoxicity against AR-positive human LNCaP cells assessed as inhibition of cell growth incubated for 7 days in presence of AR agonist, R1881 in charcoal stripped medium by WST-8 assay; format: functional, cell-based; details: 168 h
[34] = target: T1, von Hippel-Lindau disease tumor suppressor/Androgen receptor; test: Protac activity at VHL/AR in AR-positive human LNCaP cells assessed as induction of androgen receptor degradation at 100 nM preincubated with NEDD8 activating E1 enzyme inhibitor, MLN4924 for 2 hrs followed by compound addition and measured after 6 hrs by Western blot analysis; format: cell-based
[35] = target: T1, von Hippel-Lindau disease tumor suppressor/Androgen receptor; test: as §1, with “LNCaP” for “VCaP”; format: cell-based
[36] = Downregulation of PSA mRNA expression in human VCaP cells at 10 nM measured after 24 hrs by charcoal stripped serum based qRT-PCR analysis relative to control; format: functional
[37] = target: T1, von Hippel-Lindau disease tumor suppressor/Androgen receptor; test: Protac activity at VHL/AR in AR-positive human VCaP cells assessed as induction of androgen receptor degradation at 100 nM preincubated with proteasome inhibitor, MG132 for 2 hrs followed by compound addition and measured after 6 hrs by Western blot analysis; format: cell-based
[38] = Downregulation of PSA mRNA expression in human LNCaP cells at 10 nM measured after 24 hrs by qRT-PCR analysis relative to control; format: functional
VCaP [39] = test: Downregulation of ERG gene expression in human VCaP cells measured after 24 hrs by regular serum based qRT-PCR analysis; format: functional, cell-based; details: dose 1-1000 nM
[40] = target: T1, von Hippel-Lindau disease tumor suppressor/Androgen receptor; test: Protac activity at VHL/AR in AR-positive human LNCaP cells assessed as induction of androgen receptor degradation at 100 nM preincubated with proteasome inhibitor, MG132 for 2 hrs followed by compound addition and measured after 6 hrs by Western blot analysis; format: cell-based
[41] = target: T1, von Hippel-Lindau disease tumor suppressor/Androgen receptor; test: Protac activity at VHL/AR in AR-positive human VCaP cells assessed as induction of androgen receptor degradation at 100 nM preincubated with NEDD8 activating E1 enzyme inhibitor, MLN4924 for 2 hrs followed by compound addition and measured after 6 hrs by Western blot analysis; format: cell-based

Activity [1]: > 95%
Activity [7]: inactive
Activity [8]: inactive
Activity [9]: Active
Activity [10]: Active
pEC50 [11]: 9.07
Activity [12]: 89%
Activity [16]: 99%
pEC50 [18]: 7.98
Activity [20]: Active
Activity [21]: Active
Activity [22]: inactive
pEC50 [32]: 9.12
Activity [34]: inactive
Activity [35]: inactive
Activity [37]: inactive
Activity [40]: inactive
Activity [41]: inactive
Structure (SMILES): Cc1ncsc1-c1ccc([C@H](CC(=O)N2CCC(N3CCC(C#Cc4ccc(C(=O)N[C@H]5C(C)(C)[C@H](Oc6ccc(C#N)c(Cl)c6)C5(C)C)cc4)CC3)CC2)NC(=O)[C@@H]2C[C@@H](O)CN2C(=O)[C@@H](NC(=O)C2(F)CC2)C(C)(C)C)cc1
Activity [2]: >50%
Activity [3]: >50%
Activity [4]: >50%
Activity (VCaP [5]): Dose-Dependent Effect
Activity [6]: >50%
Activity (VCaP [13]): Dose-Dependent Effect
Activity (VCaP [14]): Dose-Dependent Effect
Activity (VCaP [15]): Dose-Dependent Effect
Activity (VCaP [17]): Dose-Dependent Effect
Activity (VCaP [19]): Dose-Dependent Effect
Ratio IC50 (LNCaP [23]): >100
Ratio IC50 (CWR22R [24]): >100
pIC50 (VCaP [25]): 9.47
Activity (VCaP [26]): Dose-Dependent Effect
Activity (LNCaP [27]): Dose-Dependent Effect
pIC50 (CWR22R [28]): 6.74
Activity (LNCaP [29]): Dose-Dependent Effect
Activity (LNCaP [30]): Dose-Dependent Effect
Ratio IC50 (VCaP [31]): >100
pIC50 (LNCaP [33]): 9.60
Activity [36]: >50%
Activity [38]: >50%
Activity (VCaP [39]): Dose-Dependent Effect
